The record followed here is PubChem BioAssay (NCI).

Holding throughout (assay): DTP human tumour cell line panel, 48 h
In experiment [1] the test system is 786-0 renal.
Experiment [2] concerns EKVX NSCLC.
Experiment [3] relates to HOP-62 NSCLC.
Experiment [4] deals with HT29 colon.
The test system of experiment [5] is M14 melanoma.
The subject of experiment [6] is MOLT-4 leukemia.
For experiment [7], the system named is NCI-H460 lung.
The subject of experiment [8] is SF-268 CNS.
The subject of experiment [9] is SK-MEL-28 melanoma.
Experiment [10] has as its system A498 renal.

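Test compounds were applied to cells in 96-well plates for 48 hours at 5 doses. GI50: concentration for 50% inhibition of growth. The concentration for full growth arrest is given as TGI.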

What is called TGI is the concentration at which net growth stops. Read a high TGI as lower sensitivity of the cells. As to `CSc1ccc(C(=O)C(=O)c2ccc(SC)s2)s1`, the concentration for total growth inhibition (TGI) in experiment [1] was more than 10 µM; in experiment [2] it was more than 10 µM; in experiment [3], more than 10 µM; in [4] it was more than 10 µM; in experiment [5] it was more than 10 µM; in experiment [6], 7.78 µM. Besides, the TGI in experiment [7], in experiment [8] and in experiment [9] was more than 10 µM each time.
In the case of `COc1ccc(C2CCc3cc4c(cc3/C2=N/OC(C)=O)OCO4)cc1OC` (stereo not given), the TGI in experiment [1] was more than 100 µM; in experiment [2], more than 100 µM; in experiment [3] it was more than 100 µM; in experiment [4], more than 100 µM; in experiment [5] it was 42.2 µM; in [6] it was 52 µM. The results for the TGI in experiment [8] and in experiment [9] were more than 100 µM and 57.4 µM, respectively.
The GI50 is the concentration at which growth is held to half of that of the control. Consider `CC(=O)N(Cc1ccccc1)c1ccccc1I(=O)=O`, for which the GI50 was 57.8 µM in experiment [1]; 49.7 µM in experiment [10]; 88.5 µM in [2]; 27.8 µM in experiment [4]; 12.7 µM in [6]; 22.8 µM in [7]. The GI50 in [8] is 16.2 µM; in experiment [9] it was 34.5 µM. Moreover, the TGI is more than 100 µM in experiment [1]; more than 100 µM in [10]; more than 100 µM in [2]; more than 100 µM in [4]; 42.9 µM in experiment [6]; 58.5 µM in [7]. The TGI in experiment [8] is 48.9 µM; in experiment [9], more than 100 µM.
On to `CCCCCCCCCCCCOP(N)(=O)OCCCCCCCCCCCC`, for which the TGI in [1], in experiment [2], in experiment [3], in experiment [5], in experiment [6] and in experiment [7] was more than 100 µM each time. The TGI in experiment [8] and in [9] was more than 100 µM throughout.
For `N#CC1C=Cc2ccccc2N1C(=O)Oc1ccccc1` (stereo not given), the TGI in experiment [1] was more than 100 µM; in experiment [10] it was 96.5 µM; in experiment [2], more than 100 µM; in experiment [4] it was more than 100 µM; in experiment [5] it was more than 100 µM; in experiment [6], 93.8 µM. Besides, the TGI in experiment [7], in experiment [8] and in [9] was more than 100 µM throughout.
Take `CCC1CNC(=O)CC1CC(=O)OC` (stereo not given): the TGI in experiment [1], in experiment [2], in experiment [3], in [5], in [6] and in [8] was more than 100 µM throughout. For the same molecule, the TGI in experiment [9] is more than 100 µM.
For the molecule `CC1=C(C(=O)Nc2ccc(Cl)c(Cl)c2)C(c2ccccc2O)NC(=O)N1` (stereo not given), the GI50 is more than 50 µM in experiment [1]; 28.6 µM in [2]; more than 50 µM in [3]; more than 50 µM in experiment [5]; more than 50 µM in experiment [6]; more than 50 µM in experiment [7]. In addition, the GI50 was 46.9 µM in experiment [8] and more than 50 µM in [9]. Also, the concentration for total growth inhibition (TGI) in [1], in experiment [2], in [3], in experiment [5], in experiment [6] and in experiment [7] was more than 50 µM each time. Moreover, the TGI in experiment [8] and in experiment [9] was more than 50 µM each time.
Turning to `Cc1ccc(NC(=O)CC(=O)N2N=C(N(CCC#N)c3cccc(C)c3)CC2c2ccccc2)cc1` (stereo not given), the TGI in [1], in experiment [2], in experiment [3], in experiment [4], in experiment [5] and in [6] was more than 100 µM throughout. Further, the TGI in experiment [7], in experiment [8] and in [9] was more than 100 µM in each case.
`COc1cccc(C2NC(=S)NC(C)=C2C(=O)Nc2ccc(Cl)c(Cl)c2)c1` (stereo not given): the GI50 in [1] is 10.7 µM; in experiment [2] it was 5.63 µM; in experiment [3] it was 11.6 µM; in [5], 10.3 µM; in experiment [6], more than 50 µM; in experiment [7] it was 8.21 µM. The GI50 in experiment [8] is 9.13 µM; in experiment [9], 13.3 µM. The TGI was 24 µM in [1]; 14.3 µM in [2]; 20.3 µM in experiment [3]; 19.3 µM in experiment [5]; more than 50 µM in experiment [6]; 16.3 µM in [7]. Further, the results for the TGI in experiment [8] and in experiment [9] were 18.7 µM and 47.7 µM, respectively.
Take `O=c1c2ccccc2oc2ccc(OCCCCCCN3CCCCCC3)cc12`: the GI50 in experiment [1] was 1.9 µM; in [10], 2.49 µM; in [2], 2.88 µM; in experiment [4], 1.91 µM; in [5] it was 1.88 µM; in experiment [6], 2.38 µM. The GI50 was 3.46 µM in experiment [7], 4.35 µM in [8] and 2.01 µM in experiment [9]. Also, the TGI stood at 4.35 µM in experiment [1]; 6.49 µM in experiment [10]; 13.9 µM in [2]; 6.57 µM in experiment [4]; 3.69 µM in [5]; 6.29 µM in experiment [6]. The figures for the TGI in experiment [7], in [8] and in experiment [9] were 11.3 µM, 20 µM and 4.58 µM, respectively.
As to `O=C1CN(/N=C/c2ccc(-c3ccc(F)cc3)o2)C(=O)N1`, the TGI in experiment [1], in experiment [10], in experiment [2], in experiment [3], in experiment [5] and in [6] was more than 100 µM each time. Moreover, the TGI was more than 100 µM in [7], more than 100 µM in experiment [8] and 83.6 µM in experiment [9].
